This is an account of results in PubChem BioAssay AID2789 (Sanford-Burnham Center for Chemical Genomics, 2010).

Calls of active or inactive are those of the source. No rule for the calls is given here. A value given as a limit tells only on which side of the number the result lay.

The subject of this experiment is NF-kappaB luciferase reporter cells, doxorubicin-induced, luminescence. The experiment is described as follows: NF-kB luciferase suppression after doxorubicin – cell-based, doxorubicin inducer, set 2, SAR follow-up (AID 2789).
For `CCCCCn1c(SCCc2ccccc2)nc2c1c(=O)[nH]c(=O)n2C`, the IC50 (as a rule, the concentration at which inhibition is half-maximal) is > 25 µM (inactive).

Regarding `COCCn1c(SCCCc2ccccc2)nc2c1c(=O)[nH]c(=O)n2C`, the IC50 was > 25 µM (inactive).

On to `Nc1nc2ccccc2n1CCOc1ccc(Cl)cc1`, for which the IC50 is > 25 µM (inactive).

As to `C/C=C/Cn1c(SCc2ccc(Cl)cc2)nc2c1c(=O)[nH]c(=O)n2C`, the IC50 was > 25 µM (inactive).

In the case of `CCCCn1c(SCC(=O)c2ccccc2)nc2c1c(=O)[nH]c(=O)n2C`, the IC50 is > 25 µM (inactive).

As to `Cn1c(=O)[nH]c(=O)c2c1nc([N+](=O)[O-])n2Cc1ccccc1`, the IC50 was > 25 µM (inactive).

For the compound `CCCn1c(SCCc2ccccc2)nc2c1c(=O)[nH]c(=O)n2C`, the IC50 was > 25 µM (inactive).

As to `C=CCn1c(SCCCc2ccccc2)nc2c1c(=O)[nH]c(=O)n2C`, the IC50 is > 25 µM (inactive).

Take `CCCn1c(SCC(=O)Nc2nc3c(s2)CCCC3)nc2c1c(=O)n(C)c(=O)n2C`: the IC50 is > 25 µM (inactive).

In the case of `CC(C)n1c(SCCCc2ccccc2)nc2c1c(=O)[nH]c(=O)n2C`, the IC50 is > 25 µM (inactive).

`C/C=C/Cn1c(SCc2ccccc2)nc2c1c(=O)[nH]c(=O)n2C`: the IC50 was > 25 µM (inactive).

Turning to `C/C(Cl)=C\Cn1c(NCCc2ccccc2)nc2c1c(=O)n(C)c(=O)n2C`, the IC50 was > 25 µM (inactive).

On to `C/C=C/Cn1c(SCCCc2ccccc2)nc2c1c(=O)[nH]c(=O)n2C`, for which the IC50 is > 25 µM (inactive).

In the case of `CCCCn1c(SCC(=O)Nc2nnc(CC)s2)nc2c1c(=O)n(C)c(=O)n2C`, the IC50 is > 25 µM (inactive).

For the compound `CC(C)Sc1nc2c(c(=O)[nH]c(=O)n2C)n1Cc1ccccc1`, the IC50 is > 25 µM (inactive).
